Target: Replicase polyprotein 1ab (Severe acute respiratory syndrome coronavirus, UniProt P0C6X7)
Experiment: 3CL Protease Enzyme Assays
Conditions: pH 7.5; 25 °C
Description: The effects of compound on enzyme activity were measured by using peptide cleavage assay. Cleavage products were resolved and analyzed with a reverse-phase HPLC. Quantification of peak areas was used to determine the extent of substrate conversion. Ki was calculated using the equation of Cheng and Prusoff.

SMILES | Ki [nM]
C[C@H](OC(C)(C)C)[C@H](NC(=O)OCc1ccccc1)C(=O)N[C@@H](CC1CCCCC1)C(=O)N[C@H](C=O)C[C@@H]1CCNC1=O [benzyl N-[(1S,2S)-2-(tert-butoxy)-1-{[(1S)-2-cyclohexyl-1-{[(2S)-1-oxo-3-[(3S)-2-oxopyrrolidin-3-yl]propan-2-yl]carbamoyl}ethyl]carbamoyl}propyl]carbamate] | 53
CCOC(=O)/C=C/[C@H](C[C@@H]1CCNC1=O)NC(=O)[C@H](Cc1ccc(F)cc1)NC(=O)[C@@H](NC(=O)c1cc(C)on1)C(C)C [AG7088 analogue 2a] | > 10000

— BindingDB's records for doi:10.1021/jm0603926 (Taigen Biotechnology, 2006)
